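Each compound was tested at five concentrations against cells in 96-well plates for 48 hours. GI50 marks 50% less growth.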 The source made the active and inactive calls. Cut-off read from the data, not from the text of the source: active = GI50 up to about 1.1 µM and inactive = higher. Where a SMILES comes first, the peptide text is derived from it. The star is where a group is joined. Boc = CC(C)(C)OC(=O)*; Bn = c1ccc(C*)cc1
Assays:
Assay in all cases: NCI tumour cell line growth inhibition, 48 h
[1] = system: NCI-H23
[2] = system: SW-620
[3] = system: SR
[4] = system: OVCAR-8
[5] = system: NCI-H522
[6] = system: A549
[7] = system: HT-29
[8] = system: SK-MEL-2
[9] = system: NCI-H226
[10] = system: SK-MEL-28
[11] = system: TK-10
[12] = system: ACHN
[13] = system: Hs-578T
[14] = system: MDA-MB-435
[15] = system: BT-549
[16] = system: OVCAR-4
[17] = system: 786-0
[18] = system: UACC-62
[19] = system: MOLT-4

Measured: GI50

O=C(O)c1ccccc1-c1ccccc1C(=O)Nc1ccc2c(c1)Cc1ccccc1-2
inactive: [1] 18 µM | [2] 31.8 µM | [3] 28.4 µM | [4] 43.6 µM | [5] 21.3 µM | [6] 29.2 µM | [7] 25.5 µM | [8] 22.6 µM | [9] 67.6 µM | [10] 40.8 µM | [11] 45.1 µM | [12] 30.3 µM | [13] 48.5 µM | [14] 41.9 µM | [15] 29.9 µM | [16] 60.1 µM | [17] 34.7 µM | [18] 16.7 µM

C/C=C1/CN2CCC34c5ccccc5N5C(=O)C(C6CC78c9ccccc9N9C(=O)C=CC(C%10CC7N6C/C%10=C/C)C98)=CC(C1CC23)C54 (stereo not drawn)
active: [3] 0.667 µM | [19] 1.11 µM
inactive: [1] 5.98 µM | [2] 1.59 µM | [4] 2.06 µM | [5] 3.11 µM | [6] 8.15 µM | [7] 2.44 µM | [8] 6.53 µM | [9] 7.13 µM | [10] 5.41 µM | [11] 7.52 µM | [12] 7 µM | [13] 8.11 µM | [14] 6.28 µM | [15] 8.77 µM | [16] 7.01 µM | [17] 4.67 µM | [18] 7.69 µM

COC(=O)c1nc2c3c(cccc3c1C(=O)OC)Nc1ccccc1-2
inactive: [1] 36 µM | [2] 40.7 µM | [3] 78.3 µM | [5] 10.7 µM | [6] 35.6 µM | [7] 34.8 µM | [19] 43.8 µM | [8] 28.1 µM | [9] 65.3 µM | [10] 59.7 µM | [11] 40.9 µM | [12] 36.6 µM | [13] 26.7 µM | [14] 83.6 µM | [15] 43.2 µM | [16] 35.9 µM | [17] 27.5 µM | [18] 10.7 µM

N/C(=N\c1cccc(Cl)c1)c1ccccc1N
inactive: [1] > 100 µM | [2] > 100 µM | [3] > 100 µM | [4] > 100 µM | [5] > 100 µM | [6] > 100 µM | [7] > 100 µM | [19] > 100 µM | [9] > 100 µM | [10] > 100 µM | [11] > 100 µM | [12] > 100 µM | [13] > 100 µM | [14] > 100 µM | [15] > 100 µM | [16] > 100 µM | [17] > 100 µM | [18] > 100 µM

C[C@@H]1CC[C@@]2(OC1)O[C@H]1C[C@H]3[C@@H]4CC[C@H]5C[C@@H](OC6OC(CO)C(OC7OC(CO)C(O)C(OC8OCC(O)C(O)C8O)C7OC7OC(CO)C(O)C(O)C7O)C(O)C6O)[C@H](O)C[C@]5(C)[C@H]4CC[C@]3(C)[C@H]1[C@@H]2C (stereo partly drawn)
active: [5] 0.426 µM | [6] 0.855 µM
inactive: [1] 2.11 µM | [2] 4.19 µM | [3] 14.3 µM | [4] 2.97 µM | [7] 1.75 µM | [19] 11.3 µM | [8] 9.08 µM | [9] 6.47 µM | [10] 15.4 µM | [11] 4.36 µM | [12] 2.75 µM | [13] 5.75 µM | [14] 13 µM | [15] 2.94 µM | [16] 1.95 µM | [17] > 10 µM | [18] 20 µM

Oc1nc2c(c(-c3cccc(Cl)c3)n1)COC/C2=C\c1cccc(Cl)c1
inactive: [1] > 100 µM | [2] > 100 µM | [3] > 100 µM | [4] > 100 µM | [5] > 100 µM | [19] > 100 µM | [8] > 100 µM | [9] > 100 µM | [11] > 100 µM | [12] > 100 µM | [13] > 100 µM | [14] > 100 µM | [15] > 100 µM | [16] > 100 µM | [17] > 100 µM | [18] > 100 µM

NC(=O)/C=C/NC(=O)/C=N\O
inactive: [2] > 100 µM | [3] > 100 µM | [4] > 100 µM | [5] > 100 µM | [7] > 100 µM | [19] > 100 µM | [9] > 100 µM | [10] > 100 µM | [12] > 100 µM | [13] > 100 µM | [14] > 100 µM | [15] > 100 µM | [16] > 100 µM | [17] > 100 µM | [18] > 100 µM

C/C(Cl)=N\OC(=O)Nc1ccc([N+](=O)[O-])cc1
inactive: [1] 21.5 µM | [2] 2 µM | [3] 6.79 µM | [4] 15.1 µM | [5] 1.99 µM | [6] 21.6 µM | [7] 9.71 µM | [19] 1.92 µM | [8] 17.5 µM | [9] > 100 µM | [10] 17.2 µM | [11] 14.7 µM | [12] 4.73 µM | [13] 25 µM | [14] 18.8 µM | [15] 23 µM | [16] 13.7 µM | [17] 5.92 µM | [18] 22.2 µM

CSc1cc(Cl)c(C)cc1S(=O)(=O)NC(=O)Nc1ccc(Cl)cc1
inactive: [1] 18.4 µM | [2] 33.7 µM | [3] 21.5 µM | [4] 35.6 µM | [5] 20.4 µM | [6] 33.3 µM | [7] 35.2 µM | [19] 16.8 µM | [8] 25.8 µM | [9] 22 µM | [10] 46.1 µM | [11] 28.5 µM | [12] 27.8 µM | [13] 51.8 µM | [14] 38.4 µM | [15] 32 µM | [16] 40.1 µM | [17] 31.2 µM
active: [18] 0.48 µM

C[C@]12CC[C@H]3[C@@H](CC[C@]4(O)C[C@@H](O)CC[C@]34/C=N/O)[C@@]1(O)CC[C@@H]2C1=COC(=O)C1
active: [1] 0.0644 µM | [2] 0.191 µM | [3] 0.0504 µM | [4] 0.154 µM | [5] 0.0323 µM | [6] 0.0336 µM | [7] 0.146 µM | [19] 0.0272 µM | [8] 0.255 µM | [9] 0.391 µM | [10] 0.482 µM | [11] 0.0845 µM | [12] 0.0404 µM | [13] 0.112 µM | [14] 0.257 µM | [15] 0.0675 µM | [16] 0.0608 µM | [17] 0.102 µM | [18] 0.303 µM

COC(=O)C(CC(C)C)NC(=O)C(C)NC(=O)C(Cc1ccc(OCc2ccccc2)cc1)NC(=O)C(COCc1ccccc1)NC(=O)OC(C)(C)C (stereo not drawn) (Boc-S(Bn)Y(Bn)AL-OMe; configuration not given here)
inactive: [1] > 100 µM | [2] > 100 µM | [3] > 100 µM | [4] > 100 µM | [5] > 100 µM | [6] > 100 µM | [7] > 100 µM | [19] 96.2 µM | [9] > 100 µM | [10] > 100 µM | [11] > 100 µM | [12] > 100 µM | [13] 58.3 µM | [14] > 100 µM | [15] > 100 µM | [16] 4.3 µM | [17] > 100 µM | [18] 96.6 µM

Reference: ChEMBL document CHEMBL1201862, “PubChem BioAssay data set” (2004)
